Results taken from PMC10747602, “Dose Response, Dosimetric, and Metabolic Evaluations of Replacement PFAS Perfluoro-(2,5,8-trimethyl-3,6,9-trioxadodecanoic) Acid (HFPO-TeA)” (Toxics, 2023).
Values joined by “and” are separate entries in the source; they are usually repeats but may differ in a detail not shown here. Equal entries are not always repeated.

Assays:
[1] = Ultracentrifugation plasma protein binding assay, rat plasma; type: in vitro ADME; details: both sexes, Sprague Dawley, rat
Method: (§1) Information on the chemicals and materials used in the plasma protein binding work can be found in Supplementary Text S10 and Table S3. Human and rodent plasma were evaluated for plasma protein binding using ultracentrifugation, as previously described. Working solutions of 3 mM of HFPO-DA, HFPO-TA, and HFPO-TeA were prepared separately in ethanol, with each working solution containing 3 mM of testosterone (Sigma-Aldrich; ≥98% pure) as a reference compound for assay performance. An aliquot of each stock solution (13.3 µL) was added to separate 15 mL tubes with 3.987 mL of plasma for a final assay concentration of 10 µM. The plasma solutions were incubated at 37 °C and 125 rpm for 60 min. One-hour stability samples (T60 min) were drawn in triplicate and diluted in four volumes of plasma ultrafiltrate. Aliquots (1 mL) from each plasma solution were drawn in triplicate and transferred to polycarbonate tubing. These samples underwent ultracentrifugation (Beckman OptimaMax; Beckman Coulter Inc., Brea, CA, USA) at 850,000× g for 4 h at 37 °C.
(§2) The remaining plasma solutions were returned for incubation at 37 °C and 125 rpm for an additional 4 h. Five-hour stability samples (T300 min) were then drawn in triplicate and diluted in four volumes of plasma ultrafiltrate. After ultracentrifugation, the aqueous fraction (AF) was collected by transferring the supernatant to a new tube and diluting in an equal volume of plasma for matrix matching. All samples were combined with 3 volumes of ice-cold ACN containing 16 ng/mL of ^13C3-HFPO-DA and 16 ng/mL of ^13C-Testosterone (Cambridge Isotope Laboratories; 98% pure). Samples were vigorously mixed, stored for 10 min at −20 °C, and then centrifuged at 12,000× g for 10 min at 4 °C. Supernatants were collected then stored at −70 °C prior to analysis.
(§3) Fraction unbound (fu) in plasma (fup) and percent stability calculations are detailed in Supplementary Text S10. Hepatic clearance, the fu in blood (fub) (fu in plasma adjusted for blood:plasma partitioning), and renal clearance were used to derive the steady-state concentration (Css) of each compound that will be used for in vitro–in vivo extrapolation (IVIVE). Renal clearance was calculated using the glomerular filtration rate (a species-dependent constant) and the fub. The Css calculation is detailed in Supplementary Text S11.
(§4) The gradient is available in Table S11. […]
(§5) Chemical stability in plasma was assessed
(§6) (F) Percent Stability = T300minutesT60minutes∗100

[2] = tested on: Sprague Dawley rodent plasma; assay: as above; type: in vitro ADME; details: rat plasma, 10000 nM
Method: as §1, §2, §3, §4, §5, §6

hepatocytes = assay: Hepatic metabolite formation assay with non-targeted analysis; type: in vitro ADME, human and rat
Method: Extracts of plasma (50 µL), liver (10 mg), and hepatocyte metabolism assay media (10 µL) were analyzed by high-resolution, accurate mass non-targeted analysis (NTA) for the detection and identification of potential biotransformation products of HFPO-TeA. A mixture of ^13C-labeled PFAS compounds (MPAC-C-ES, Wellington Laboratories, Guelph, ON, Canada) were used as tracers. Samples were extracted, as detailed above (in vivo) and below (in vitro), and then analyzed in triplicate in a randomized order on a Sciex X500R QTOF. Additional information on NTA instrumental analysis and data processing parameters is presented in Supplementary Text S8 and Tables S8 and S10 [52]. […] A screening list of potential biotransformation products was generated using the U.S. EPA web application CTS: Chemical Transformation Simulator 1.0 and Biotransformer 3.0 [53, 54]. In some instances, molecular structure predictions were performed using MetFrag.
For the hepatic metabolite formation assays, the procedure described above was followed with the following modifications: assay concentrations of 50 and 100 µM were used, and samples were collected at times T0, T30, T60, and T120 min. Aliquots (10 µL) were combined with an equal volume of H2O. Non-targeted screening of potential biotransformation or degradation products of these samples was performed on the Sciex instrumentation described above.

[3] = Ultracentrifugation plasma protein binding assay, human plasma; type: in vitro ADME; details: both sexes, human
Method: as §1, §2, §3, §4, §5, §6

Human plasma = assay: as above; type: in vitro ADME; details: 10000 nM; for Average Stability (T5hr/ T1hr): 37 °C; for Aqueous Fraction concentration: after ultracentrifugation; for Aqueous Fraction concentration / Fraction Unbound in plasma (fup) / Stability (T5hr/ T1hr) / Time 1 hr concentration / Time 5 hr concentration: replicates A-C
Method: as §1, §2, §3, §4, §5, §6

[4] = plasma, Rat plasma, 10 µM, ultracentrifugation, read-out: Experimental fup (average fraction unbound in plasma)
[5] = rat plasma, 10000 nM, Rep A, read-out: Fraction Unbound in plasma (fup), Rep A
[6] = rat plasma, 10000 nM, Rep B, read-out: Fraction Unbound in plasma (fup), Rep B
[7] = rat plasma, 10000 nM, Rep C, read-out: Fraction Unbound in plasma (fup), Rep C
[8] = plasma, 10 µM, ultracentrifugation, read-out: Experimental fup (average fraction unbound in plasma)
[9] = pooled human plasma, 10000 nM, replicates A-C, read-out: Fraction Unbound in plasma (fup)

| SMILES | fraction unbound at 4 h, 10 µM [1, 4] | fraction unbound at 4 h, 10 µM [1, 5] | fraction unbound at 4 h, 10 µM [1, 7] | Average Stability (T5hr/ T1hr) [2] | Aqueous Fraction, Rep A [2] | Stability (T5hr/ T1hr), Rep A [2] | Time 1 hr concentration, Rep A [2] | Time 5 hr concentration, Rep A [2] | Aqueous Fraction, Rep B [2] | Time 1 hr concentration, Rep B [2] | Aqueous Fraction, Rep C [2] | Stability (T5hr/ T1hr), Rep C [2] | Time 1 hr concentration, Rep C [2] | Time 5 hr concentration, Rep C [2] | fraction unbound at 4 h, 10 µM [3, 8] | fraction unbound at 4 h, 10 µM [3, 9] | Average Stability (T5hr/ T1hr) (Human plasma) | Aqueous Fraction concentration (Human plasma) | Fraction Unbound in plasma (fup) (Human plasma) | Stability (T5hr/ T1hr) (Human plasma) | other results |
| --- | --- | --- | --- | --- | --- | --- | --- | --- | --- | --- | --- | --- | --- | --- | --- | --- | --- | --- | --- | --- | --- |
| O=C(O)C(F)(OC(F)(F)C(F)(OC(F)(F)C(F)(OC(F)(F)C(F)(F)C(F)(F)F)C(F)(F)F)C(F)(F)F)C(F)(F)F (centres unmarked) [HFPO-TeA, perfluoro-(2,5,8-trimethyl-3,6,9-trioxadodecanoic) acid] | 0.0059 | 0.00493 | 0.00748 | 1.1996 | 38.40 nM | 0.9294 | 8.384 µM | 7.792 µM | 35.20 nM | 6.528 µM | 48.00 nM | 1.6301 | 3.936 µM | 6.416 µM | 0.0124 | 0.0121 | 1.0363 | 83.20 nM and 80 nM and 121.60 nM | 0.0109 and 0.0142 | 0.9304 and 0.9406 and 1.2379 | fraction unbound at 4 h, 10 µM [1, 6]: 0.00519; Stability (T5hr/ T1hr), Rep B [2]: 1.0392; Time 5 hr concentration, Rep B [2]: 6.784 µM; presence of predicted biotransformation products (non-targeted analysis) (hepatocytes; in vitro hepatocyte assays): None of the biotransformation products predicted using CTS were observed; Time 1 hr concentration (Human plasma): 7.36 µM and 7.808 µM and 6.928 µM; Time 5 hr concentration (Human plasma): 6.848 µM and 7.344 µM and 8.576 µM |
| O=C(O)C(F)(OC(F)(F)C(F)(F)C(F)(F)F)C(F)(F)F (centres unmarked) [HFPO-DA, perfluoro-2-methyl-3-oxahexanoic acid] | 0.0307 | 0.0304 | 0.031 | 1.0909 | 265.60 nM | 1.0510 | 8.312 µM | 8.736 µM | 230.40 nM | 7.672 µM | 240 nM | 1.1308 | 6.848 µM | 7.744 µM | 0.0098 | 0.0099 | 0.9905 | 72.64 nM and 73.60 nM and 65.28 nM | 0.0095 | 0.9836 and 1.1438 and 0.8441 | Time 1 hr concentration (Human plasma): 7.4664 µM and 6.7536 µM and 7.8224 µM; Time 5 hr concentration (Human plasma): 7.344 µM and 7.7248 µM and 6.6032 µM |
| O=C(O)C(F)(OC(F)(F)C(F)(OC(F)(F)C(F)(F)C(F)(F)F)C(F)(F)F)C(F)(F)F (centres unmarked) [HFPO-TA, perfluoro-(2,5-dimethyl-3,6-dioxanonanoic) acid] | 0.0018 | 0.00165 | 0.00223 | 1.0261 | 16.00 nM | 0.9209 | 10.52 µM | 9.688 µM | 16.00 nM | 8.76 µM | 22.40 nM | 0.9866 | 10.184 µM | 10.048 µM | 0.0013 | 0.0013 | 1.0308 | 8.96 nM and 9.6 nM and 15.04 nM | 0.0011 and 0.0015 | 0.7676 and 1.2763 and 1.0484 | fraction unbound at 4 h, 10 µM [1, 6]: 0.00156; Stability (T5hr/ T1hr), Rep B [2]: 1.1708; Time 5 hr concentration, Rep B [2]: 10.256 µM; abundance relative to HFPO-TeA (hepatocytes; T0 active hepatocyte preparation): < 1%; Time 1 hr concentration (Human plasma): 8.7016 µM and 7.0496 µM and 9.7592 µM; Time 5 hr concentration (Human plasma): 6.6792 µM and 8.9976 µM and 10.232 µM |
